Reference: PubChem BioAssay (NCI)
“And” between values parts separate entries of the source, which are not always exact repeats. Identical values can stand only once.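 Each compound was tested at five concentrations against cells in 96-well plates for 48 hours. Abbreviation: GI50, concentration required for 50% inhibition of growth. TGI: total growth inhibition.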

Assays:
Assay in all cases: inhibition of tumour cell growth, NCI panel, 48 h
KM12 colon = tested on: KM12 colon
OVCAR-5 ovarian = tested on: OVCAR-5 ovarian
SK-MEL-28 melanoma = tested on: SK-MEL-28 melanoma
NCI-H23 lung = tested on: NCI-H23 lung
M14 melanoma = tested on: M14 melanoma
NCI-H522 lung = tested on: NCI-H522 lung
RXF 393 renal = tested on: RXF 393 renal
HOP-62 NSCLC = tested on: HOP-62 NSCLC
SK-MEL-2 melanoma = tested on: SK-MEL-2 melanoma
DU-145 prostate = tested on: DU-145 prostate

## CN(C(=O)C12C3C4C1C1C2C3C41C(N)=O)C(C)(C)C (centres undefined)
KM12 colon
  TGI: > 100 µM
OVCAR-5 ovarian
  TGI: > 100 µM
SK-MEL-28 melanoma
  TGI: > 100 µM
NCI-H23 lung
  TGI: > 100 µM
M14 melanoma
  TGI: > 100 µM
NCI-H522 lung
  TGI: > 100 µM

## COc1ccc2c(c1)C(=O)c1ccc(OC)cc1C2=S
RXF 393 renal
  TGI: > 100 µM
KM12 colon
  TGI: > 100 µM
OVCAR-5 ovarian
  TGI: > 100 µM
SK-MEL-28 melanoma
  TGI: > 100 µM
NCI-H23 lung
  TGI: > 100 µM
M14 melanoma
  TGI: > 100 µM
HOP-62 NSCLC
  TGI: > 100 µM
SK-MEL-2 melanoma
  TGI: > 100 µM
NCI-H522 lung
  TGI: > 100 µM

## O=C1NNC2(C(=O)N1)c1ccccc1-c1ccccc12
RXF 393 renal
  TGI: > 10 µM
KM12 colon
  TGI: > 10 µM
SK-MEL-28 melanoma
  TGI: > 10 µM
NCI-H23 lung
  TGI: > 10 µM
M14 melanoma
  TGI: > 10 µM
DU-145 prostate
  TGI: > 10 µM
HOP-62 NSCLC
  TGI: > 10 µM
NCI-H522 lung
  TGI: > 10 µM

## O=C1CCCCC1S(=O)(=O)c1ccccc1 (centres undefined)
RXF 393 renal
  TGI: > 100 µM
KM12 colon
  TGI: > 100 µM
OVCAR-5 ovarian
  TGI: > 100 µM
SK-MEL-28 melanoma
  TGI: > 100 µM
NCI-H23 lung
  TGI: > 100 µM
M14 melanoma
  TGI: > 100 µM
HOP-62 NSCLC
  TGI: > 100 µM
SK-MEL-2 melanoma
  TGI: > 100 µM
NCI-H522 lung
  TGI: > 100 µM

## C[C@@]12CCC(=O)c3coc(c31)C(=O)c1cc3c(cc12)C(=O)C=CC3=O
RXF 393 renal
  GI50: > 1 µM
  TGI: > 1 µM and 37.1 µM
KM12 colon
  GI50: > 1 µM
  TGI: > 61.6 µM
OVCAR-5 ovarian
  GI50: > 1 µM
  TGI: > 1 µM and 36 µM
SK-MEL-28 melanoma
  GI50: > 1 µM
  TGI: > 1 µM and 29.9 µM
NCI-H23 lung
  TGI: 26.2 µM
M14 melanoma
  GI50: > 1 µM
  TGI: > 1 µM and 27.6 µM
HOP-62 NSCLC
  GI50: > 1 µM
  TGI: > 100 µM
SK-MEL-2 melanoma
  GI50: > 1 µM
  TGI: > 1 µM and 45.1 µM
NCI-H522 lung
  GI50: > 1 µM
  TGI: > 1 µM and 22.1 µM

## O=S(=O)(/C=C/c1ccc(F)cc1)Cc1ccc(CS(=O)(=O)/C=C/c2ccc(F)cc2)cc1
RXF 393 renal
  TGI: > 100 µM
KM12 colon
  TGI: > 100 µM
OVCAR-5 ovarian
  TGI: > 100 µM
SK-MEL-28 melanoma
  TGI: > 100 µM
NCI-H23 lung
  TGI: > 100 µM
M14 melanoma
  TGI: > 100 µM
HOP-62 NSCLC
  TGI: > 100 µM
SK-MEL-2 melanoma
  TGI: > 100 µM
NCI-H522 lung
  TGI: > 100 µM

## CCOC(C[C@H](O[Si](C)(C)C(C)(C)C)[C@H]1COC(=S)S1)OCC
KM12 colon
  TGI: > 100 µM
SK-MEL-28 melanoma
  TGI: > 100 µM
NCI-H23 lung
  TGI: > 100 µM
M14 melanoma
  TGI: > 100 µM
HOP-62 NSCLC
  TGI: > 100 µM
NCI-H522 lung
  TGI: 55.6 µM

## COc1ccc2c(CN3CCCC[C@H]3C(=O)O)cc3cc4c(cc3c2c1)OCO4
RXF 393 renal
  GI50: 0.414 µM
  TGI: 2.03 µM
KM12 colon
  GI50: 3.69 µM
  TGI: 52.5 µM
OVCAR-5 ovarian
  GI50: 6.17 µM
  TGI: 44.5 µM
SK-MEL-28 melanoma
  GI50: 0.7 µM
  TGI: 2.33 µM
NCI-H23 lung
  GI50: 3.25 µM
  TGI: > 100 µM
M14 melanoma
  GI50: 3.72 µM
  TGI: 10.5 µM
DU-145 prostate
  GI50: 5.72 µM
  TGI: 24.7 µM
HOP-62 NSCLC
  GI50: 4.33 µM
  TGI: > 100 µM

## C=C1CC2OC(=O)C(=C)C2C(O)C2C(=C)CCC12 (centres undefined)
RXF 393 renal
  TGI: 17.7 µM
KM12 colon
  TGI: 22.6 µM
OVCAR-5 ovarian
  TGI: 24.7 µM
SK-MEL-28 melanoma
  TGI: 21 µM
NCI-H23 lung
  TGI: 27 µM
SK-MEL-2 melanoma
  TGI: 40.8 µM

## Cc1ccc2c(c1)-c1c3c(nn1-c1ccccc1)-c1ccccc1SC3O2 (centres undefined)
RXF 393 renal
  TGI: > 100 µM
KM12 colon
  TGI: > 100 µM
OVCAR-5 ovarian
  TGI: > 100 µM
SK-MEL-28 melanoma
  TGI: > 100 µM
NCI-H23 lung
  TGI: > 100 µM
HOP-62 NSCLC
  TGI: > 100 µM
SK-MEL-2 melanoma
  TGI: > 100 µM
NCI-H522 lung
  TGI: > 100 µM

## NC(=O)CN(CC(N)=O)C(N)=O
RXF 393 renal
  TGI: > 100 µM
KM12 colon
  TGI: > 100 µM
OVCAR-5 ovarian
  TGI: > 100 µM
SK-MEL-28 melanoma
  TGI: > 100 µM
NCI-H23 lung
  TGI: > 100 µM
M14 melanoma
  TGI: > 100 µM
SK-MEL-2 melanoma
  TGI: > 100 µM
NCI-H522 lung
  TGI: > 100 µM

## Cc1cc([N+](=O)[O-])c(NS(=O)(=O)c2cccc(C(=O)O)c2)cc1-c1cccnc1
RXF 393 renal
  GI50: > 100 µM
  TGI: > 100 µM
KM12 colon
  GI50: 35.1 µM
  TGI: > 100 µM
OVCAR-5 ovarian
  GI50: > 100 µM
  TGI: > 100 µM
SK-MEL-28 melanoma
  GI50: > 100 µM
  TGI: > 100 µM
NCI-H23 lung
  GI50: > 100 µM
  TGI: > 100 µM
M14 melanoma
  GI50: > 100 µM
  TGI: > 100 µM
DU-145 prostate
  GI50: > 100 µM
  TGI: > 100 µM
HOP-62 NSCLC
  GI50: > 100 µM
  TGI: > 100 µM

## COC(=O)C1(Cc2ccc3c(c2)CCC3)Cc2ccccc2C1O (centres undefined)
KM12 colon
  TGI: 47.6 µM
OVCAR-5 ovarian
  TGI: 80 µM
SK-MEL-28 melanoma
  TGI: 33 µM
NCI-H23 lung
  TGI: 45 µM
M14 melanoma
  TGI: 34.9 µM
DU-145 prostate
  TGI: > 100 µM
HOP-62 NSCLC
  TGI: 46.3 µM
SK-MEL-2 melanoma
  TGI: 27.4 µM
NCI-H522 lung
  TGI: 30.1 µM

## O=C(c1ccc(Cl)cc1Cl)C1[C@H]2C(=O)N(c3ccc(Cc4ccc(N5C(=O)[C@@H]6ON(c7ccccc7)C(C(=O)c7ccc(Cl)cc7Cl)[C@@H]6C5=O)cc4)cc3)C(=O)[C@H]2ON1c1ccccc1 (some centres undefined)
RXF 393 renal
  TGI: > 50 µM
KM12 colon
  TGI: > 50 µM
OVCAR-5 ovarian
  TGI: > 50 µM
SK-MEL-28 melanoma
  TGI: > 50 µM
NCI-H23 lung
  TGI: > 50 µM
M14 melanoma
  TGI: > 50 µM
HOP-62 NSCLC
  TGI: > 50 µM
SK-MEL-2 melanoma
  TGI: > 50 µM
NCI-H522 lung
  TGI: > 50 µM

## N/N=C(/C(=O)Nc1cccc(Cl)c1)C(C(=O)c1ccc(O)cc1O)C1OC(=O)c2ccccc21 (centres undefined)
KM12 colon
  TGI: > 100 µM
OVCAR-5 ovarian
  TGI: > 100 µM
SK-MEL-28 melanoma
  TGI: > 100 µM
NCI-H23 lung
  TGI: > 100 µM
M14 melanoma
  TGI: > 100 µM
HOP-62 NSCLC
  TGI: > 100 µM
SK-MEL-2 melanoma
  TGI: > 100 µM
NCI-H522 lung
  TGI: > 100 µM

## C=CCN=C(N/N=C/c1ccc([N+](=O)[O-])o1)NS(=O)(=O)c1cc(C(=O)Nc2ccc(Cl)cc2)c(Cl)cc1SC
KM12 colon
  GI50: 6.89 µM
  TGI: > 100 µM
OVCAR-5 ovarian
  GI50: 14.1 µM
  TGI: > 100 µM
SK-MEL-28 melanoma
  GI50: 25.9 µM
  TGI: > 100 µM
NCI-H23 lung
  GI50: > 62.7 µM
  TGI: > 100 µM
M14 melanoma
  GI50: 3.09 µM
  TGI: > 21.6 µM
DU-145 prostate
  GI50: 2.72 µM
  TGI: > 35.2 µM
HOP-62 NSCLC
  GI50: 1.8 µM
  TGI: 7.32 µM
SK-MEL-2 melanoma
  TGI: > 24.4 µM
NCI-H522 lung
  GI50: > 58.8 µM
  TGI: > 100 µM

## NNC(=O)C1CCC(=O)N1S(=O)(=O)c1ccccc1 (centres undefined)
RXF 393 renal
  TGI: > 100 µM
KM12 colon
  TGI: > 100 µM
OVCAR-5 ovarian
  TGI: > 100 µM
SK-MEL-28 melanoma
  TGI: > 100 µM
NCI-H23 lung
  TGI: > 100 µM
M14 melanoma
  TGI: > 100 µM
HOP-62 NSCLC
  TGI: > 100 µM
SK-MEL-2 melanoma
  TGI: > 100 µM
NCI-H522 lung
  TGI: > 100 µM

## CCOc1cc2c(C(=O)CC)c(O)ccc2o1
RXF 393 renal
  TGI: > 95.7 µM
KM12 colon
  TGI: > 100 µM
OVCAR-5 ovarian
  TGI: > 100 µM
SK-MEL-28 melanoma
  TGI: > 58.4 µM
NCI-H23 lung
  TGI: > 100 µM
M14 melanoma
  TGI: > 100 µM
HOP-62 NSCLC
  TGI: > 100 µM
SK-MEL-2 melanoma
  TGI: > 100 µM
NCI-H522 lung
  TGI: > 100 µM

## OC1(C23CC4CC(CC(C4)C2)C3)CSCC1(O)C12CC3CC(CC(C3)C1)C2 (centres undefined)
KM12 colon
  TGI: > 100 µM
SK-MEL-28 melanoma
  TGI: > 100 µM
NCI-H23 lung
  TGI: > 100 µM
M14 melanoma
  TGI: > 100 µM
HOP-62 NSCLC
  TGI: > 100 µM
SK-MEL-2 melanoma
  TGI: > 100 µM
NCI-H522 lung
  TGI: > 100 µM

## Cc1cn(C2CC3C(COCN3O)O2)c(=O)[nH]c1=O (centres undefined)
RXF 393 renal
  TGI: > 100 µM
KM12 colon
  TGI: > 100 µM
OVCAR-5 ovarian
  TGI: > 100 µM
SK-MEL-28 melanoma
  TGI: > 100 µM
NCI-H23 lung
  TGI: > 100 µM
M14 melanoma
  TGI: > 100 µM
HOP-62 NSCLC
  TGI: > 100 µM

## CCOC(=O)CC[C@H](NC(=O)c1nc[nH]c1[N+](=O)[O-])C(=O)OCC
RXF 393 renal
  TGI: > 100 µM
KM12 colon
  TGI: > 100 µM
SK-MEL-28 melanoma
  TGI: > 100 µM
NCI-H23 lung
  TGI: > 100 µM
M14 melanoma
  TGI: > 100 µM
HOP-62 NSCLC
  TGI: > 100 µM
SK-MEL-2 melanoma
  TGI: > 100 µM
NCI-H522 lung
  TGI: > 100 µM

## C[C@H](OCc1ccccc1)C(=O)N1CCS(=O)(=O)N2CCC[C@@H]2C1=O
RXF 393 renal
  TGI: > 100 µM
KM12 colon
  TGI: > 100 µM
OVCAR-5 ovarian
  TGI: > 100 µM
SK-MEL-28 melanoma
  TGI: > 100 µM
NCI-H23 lung
  TGI: > 100 µM
M14 melanoma
  TGI: > 100 µM
HOP-62 NSCLC
  TGI: > 100 µM
NCI-H522 lung
  TGI: > 100 µM
